Experimental data: patent US8674136B2, “Aromatic butan-2-ol compounds and preparation and uses thereof” (Institute of Pharmacology and Toxicology Academy of …, priority 2010, dated 2014)
≈ marks a conversion by molar mass, not a printed value. Where “and” joins values, the source holds several entries; their conditions need not be identical. Equal entries are not always repeated.

Experiments:
[1] = tested on: Standard Strain H37Rv of mycobacterium tuberculosis; assay: MIC against standard strain H37Rv by Microplate Alamar Blue Assay (MABA); assay type: cell-based; settings: M. tuberculosis H37Rv, 7H9 medium, 37° C.
[2] = Acute toxicity in mice, single oral intragastric administration; assay type: in vivo; settings: male, BALB/C, mouse, in vivo, single oral intragastric administration, preliminary
Protocol: (§1) Experiments on the Acute Toxicity of the Compounds
(§2) The acute toxicities of Compounds 4, 16 and 25 were in vivo evaluated preliminarily in mice. Animal: male BALB/C mice, 18-20 g/mouse, 3 mice for blank control group, and 5 mice for each of test groups.
(§3) Method: Suspensions of Compound 25: 49 mg/ml (depended on the total amount of the compound provided); Compounds 4 and 16: 50 mg/ml were prepared in 0.5% CMC to separately. Each mouse of the 3 groups was subjected to oral intragastric administration of 0.2 ml of drug, and the doses were separately as follows: Compound 25: 490 mg/kg; and Compounds 4 and 16: 500 mg/kg. The blank control was administered with water. The consciousness, behavior and death of mice were observed every day after administration until 7 days of administration, and the survived mice were dissected after 7 days to observe pathological changes of tissues.

male BALB/C mice = assay: as above; assay type: in vivo; settings: observed 7 days
Protocol: as §1, §2, §3

Row | SMILES | MIC [1] | LD50 at 7 days [2] | death or abnormality of the animals (male BALB/C mice; single dose of 500 mg/kg) | melting point | death or abnormality of the animals (male BALB/C mice; single dose of 490 mg/kg)
1 | COc1cc2ccc(Br)cc2cc1C(c1ccc(Cl)cc1)C(O)(CCN(C)C)c1cccc2ccccc12 (single isomer, unassigned) [Compound 4, 1-(4-chlorophenyl)-2-(1-naphthyl)-1-[2-(7-bromo-3-methoxy)naphthyl]-4-(N,N-dimethylamino)-butan-2-ol] | 0.244 µg/mL (≈ 0.414 µM) | ≥ 500 mg/kg | no death nor abnormality | – | –
2 | COc1cc2ccccc2cc1C(c1ccc(Cl)cc1)C(O)(CCN(C)C)c1ccc(F)cc1F (stereo not drawn) [Compound 14, 1-(4-chlorophenyl)-2-(2,4-difluorophenyl)-1-[2-(3-methoxy)naphthyl]-4-(N,N-dimethylamino)-butan-2-ol] | 0.754 µg/mL (≈ 1.52 µM) | – | – | 190.6 to 192.4 °C | –
3 | COc1cc2ccc(Br)cc2cc1C(c1ccc(Cl)cc1)C(O)(CCN(C)C)c1cccc(Br)c1 (stereo not drawn) [Compound 16, 1-(4-chlorophenyl)-2-(3-bromophenyl)-1-[2-(7-bromo-3-methoxy)naphthyl]-4-(N,N-dimethylamino)-butan-2-ol] | 0.184 µg/mL (≈ 0.298 µM) | ≥ 500 mg/kg | no death nor abnormality | – | –
4 | COc1cc2ccc(Br)cc2cc1C(c1ccccc1)C(O)(CCN(C)C)c1cccc2ccccc12 (stereo not drawn) [Compound 25, 1-phenyl-2-(1-naphthyl)-1-[2-(7-bromo-3-methoxy)naphthyl]-4-(N,N-dimethylamino)-butan-2-ol] | 0.594 µg/mL (≈ 1.07 µM) | ≥ 490 mg/kg | – | – | no death nor abnormality
5 | COc1cc2ccc(Br)cc2cc1C(c1ccc(C)cc1)C(O)(CCN(C)C)c1cccc2ccccc12 (stereo not drawn) [Compound 30, 1-(4-methylphenyl)-2-(1-naphthyl)-1-[2-(7-bromo-3-methoxy)naphthyl]-4-(N,N-dimethylamino)-butan-2-ol] | 1.000 µg/mL (≈ 1.76 µM) | – | – | 189.5 to 190.8 °C | –
6 | CN(C)CCC(O)(c1cccc2ccccc12)C(c1ccccc1)c1cc2cc(Br)ccc2c(Br)c1O (stereo not drawn) [Compound 33, 1,6-dibromo-3-[1-phenyl 2-(1-naphthyl)-2-hydroxy-4-(N,N-dimethylamino)]butyl-2-naphthol] | 1.000 µg/mL (≈ 1.61 µM) | – | – | – | –
7 | CN(C)CCC(O)(c1cccc2ccccc12)C(c1ccccc1)c1cc2cc(Br)ccc2c(Br)c1O (stereo not drawn) [Compound 34, 1,6-dibromo-3-[1-phenyl 2-(1-naphthyl)-2-hydroxy-4-(N,N-dimethylamino)]butyl-2-naphthol] | 4.000 µg/mL (≈ 6.46 µM) | – | – | – | –
8 | COc1cc2ccc(Br)cc2cc1C(c1cccc(Cl)c1)C(O)(CCN(C)C)c1cccc2ccccc12 (stereo not drawn) [Compound 35, 1-(3-chlorophenyl)-2-(1-naphthyl)-1-[2-(7-bromo-3-methoxy)naphthyl]-4-(N,N-dimethylamino)-butan-2-ol] | 0.114 µg/mL (≈ 0.194 µM) | – | – | – | –
9 | COc1cc2ccc(Br)cc2cc1C(c1cccc(Cl)c1)C(O)(CCN(C)C)c1cccc2ccccc12 (stereo not drawn) [Compound 36, 1-(3-chlorophenyl)-2-(1-naphthyl)-1-[2-(7-bromo-3-methoxy)naphthyl]-4-(N,N-dimethylamino)-butan-2-ol] | 3.773 µg/mL (≈ 6.41 µM) | – | – | – | –
10 | COc1cc2ccc(Br)cc2cc1C(c1cccc(C)c1)C(O)(CCN(C)C)c1cccc2ccccc12 (stereo not drawn) [Compound 37, 1-(3-methylphenyl)-2-(1-naphthyl)-1-[2-(7-bromo-3-methoxy)naphthyl]-4-(N,N-dimethylamino)-butan-2-ol] | 0.180 µg/mL and 0.258 µg/mL | – | – | – | –
